Data: patent publication US5260386A, “Synthesis of tagged polymers by post-polymerization (trans) amidation reaction” (Nalco Chemical Company, priority 1993, dated 1993)

Experiments:
[1] = Survey of relative performance of fluorescent derivatizing agents against a cooling water background; assay type: physicochemical; conditions: for Fluorescent Maximum, emission (em) / Fluorescent Maximum, excitation (ex): 0.4 ppm (acid actives) aqueous solution; for Relative Intensity Value, Composition: 0.4 ppm (acid actives), 1,5-naphthalene disulfonic acid standard = 100%, at own fluorescence maximum; for Relative Performance: composition relative intensity / cooling water background relative intensity
From the text: In preferred embodiment the derivatizing agents are selected from those that a reasonably high "relative performance" for a given background. As noted above, a molecule is generally considered highly fluorescent when it has a fluorescent quantum efficiency, or fluorescent quantum yield, within the range of from about 0.1 to about 1.0, and a light absorbance molar extinction coefficient of at least 1,000. The magnitude of fluorescent signal, or relative fluorescence, is the product of the fluorescent quantum yield multiplied times the light absorbance molar extinction coefficient. […] The "relative performance", as this phrase is used herein, is the ratio of the relative fluorescence of a composition to the relative fluorescence of a given background medium. The fluorescence readings are typically measured at the excitation/emission wavelengths that represent major peaks for the given fluorescent tagged polymer. […] Some generalities may be considered. Industrial cooling waters generally have an overall higher fluorescent intensity than industrial boiler waters, and therefore a degree of polymer tagging that is reasonably high for use in boiler waters may not be sufficiently high for cooling waters, since of course the intensity of fluorescence must not be overwhelmed by the background fluorescence and the intensity of fluorescence is dependent on the concentration level of the fluorescent species. Similarly, a polymer that is to be used at high concentration levels in a given background medium need not be tagged to the same extent as one that is to be used at much lower concentration levels, other parameters being the same.
Thus in Example 38 below a survey of relative performance values of a number of fluorescent derivatizing agents against a cooling water background is given as representative of the use of such screening method for any other group of derivatizing agents and any other type of background.
The relative performances of a variety of fluorescent derivatizing agents were surveyed against a cooling water background as follows. An aqueous solution of each agent at a concentration level of 0.4 ppm (acid actives) and the fluorescent intensity of each agent at its fluorescence maximum was determined, in comparison to a fluorescence reference standard. The standard used was 1,5-naphthalene disulfonic acid, which is not a derivatizing agent for the purposes of the present invention because it has no amine functionality. This standard was also measured at its fluorescence maximum in an aqueous solution at a concentration of 0.4 ppm (acid actives) and its intensity was assigned a "relative intensity value" of 100%. The "relative intensity values" of each of the other compositions tested were assigned in relationship to the intensity of the standard. For instance, a composition that had twice the intensity of the standard (the standard and the composition each being measured at their own fluorescence maximums) would be given a relative intensity value of 200%. Then the relative intensity values of the various compositions were compared to that of the cooling water background at the fluorescent maximum (peak excitation/emission wavelengths) of the composition. The cooling water fluorescent intensity employed was the average relative intensity of ten representative cooling water formulations measured for combination of wavelengths of excitation and emission within the range required for this survey. The relative performance for each composition thus is the value determined by dividing the relative intensity value determined for the fluorescence of each composition by the relative intensity value of the background fluorescence of cooling water at the same combination of wavelengths. The identities of the various compositions surveyed and the values determined are set forth below in Table VII.

rats = conditions: cited from earlier work

| Fluorescent Maximum, emission (em) [1] | Fluorescent Maximum, excitation (ex) [1] | Relative Intensity Value, Composition [1] | Relative Performance [1] | Detectable fluorescence in the survey (in words) ([1]; Table VII survey, 0.4 ppm) | Compound | Reported LD50 (oral/rats) (rats) |
| --- | --- | --- | --- | --- | --- | --- |
| 500 nm | 255 nm | 122% | 5 | – | Nc1ccc(S(=O)(=O)O)c2cccc(S(=O)(=O)O)c12 [1-amino-4,8-naphthalene disulfonic acid] | – |
| 485 nm | 245 nm | 74% | 3 | – | Nc1cccc2cc(S(=O)(=O)O)ccc12 [1-amino-6-naphthalene sulfonic acid] | – |
| – | – | 0% | 0 | did not provide detectable fluorescence | Nc1cccc2cccc(S(=O)(=O)O)c12 [1-amino-8-naphthalene sulfonic acid] | – |
| 440 nm | 245 nm | – | – | – | Nc1cc(S(=O)(=O)O)c2cccc(S(=O)(=O)O)c2c1 [2-amino-4,8-naphthalene disulfonic acid] | – |
| 340 nm | 250 nm | 26% | 8 | – | Nc1ccc(S(=O)(=O)O)cc1 [4-amino-benzene sulfonic acid] | – |
| 340 nm | 270 nm | 82% | 13 | – | Nc1ccc(C(=O)O)cc1 [4-amino-benzoic acid] | – |
| 440 nm | 245 nm | 750% | 82 | – | Nc1ccc2c(S(=O)(=O)O)cccc2c1 [2-amino-5-naphthalene sulfonic acid] | – |
| 370 nm | 240 nm | 21% | 3 | – | Nc1cccc(C(=O)O)c1 [3-amino-benzoic acid] | – |
| 420 nm | 325 nm | 444% | 24 | – | Nc1ccc(S(=O)(=O)O)c2ccccc12 [1-amino-4-naphthalene sulfonic acid] | – |
| 440 nm | 245 nm | 446% | 48 | – | Nc1ccc2ccc(S(=O)(=O)O)cc2c1 [2-amino-7-naphthalene sulfonic acid] | – |
| 440 nm | 250 nm | 77% | 8 | – | Nc1cc2ccc(S(=O)(=O)O)cc2cc1S(=O)(=O)O [2-amino-3,6-naphthalene disulfonic acid] | – |
| 420 nm | 250 nm | 486% | 49 | – | Nc1ccc2c(S(=O)(=O)O)cccc2c1S(=O)(=O)O [2-amino-1,5-naphthalene disulfonic acid] | – |
| 380 nm | 310 nm | 54% | 4 | – | Nc1cc(S(=O)(=O)O)ccc1S(=O)(=O)O [amino-2,5-benzene disulfonic acid] | – |
| 480 nm | 240 nm | 14% | 0 | – | Nc1cccc2c(S(=O)(=O)O)cccc12 [1-amino-5-naphthalene sulfonic acid] | – |
| 370 nm | 240 nm | 19% | 3 | – | Cc1ccc(N)c(S(=O)(=O)O)c1 [2-amino-5-methylbenzene sulfonic acid] | – |
| 480 nm | 340 nm | 80% | 7 | – | Nc1cccc2ccc(S(=O)(=O)O)cc12 [1-amino-7-naphthalene sulfonic acid] | – |
| 440 nm | 240 nm | 638% | 75 | – | Nc1ccc2cccc(S(=O)(=O)O)c2c1 [2-amino-8-naphthalene sulfonic acid] | – |
| 480 nm | 245 nm | 540% | 25 | – | Nc1cc(S(=O)(=O)O)cc2cccc(S(=O)(=O)O)c12 [1-amino-3,8-naphthalene disulfonic acid] | – |
| 330 nm | 290 nm | 100% | 14 | – | O=S(=O)(O)c1cccc2c(S(=O)(=O)O)cccc12 [1,5-naphthalene disulfonic acid] | – |
| 485 nm | 245 nm | 150% | 7 | – | Nc1ccc2ccccc2c1S(=O)(=O)O [2-amino-1-naphthalene sulfonic acid] | – |

| Compound | Fluorescent Maximum, emission (em) [1] | Fluorescent Maximum, excitation (ex) [1] | Relative Intensity Value, Composition [1] | Relative Performance [1] | Detectable fluorescence in the survey (in words) ([1]; Table VII survey, 0.4 ppm) | Reported LD50 (oral/rats) (rats) |
| --- | --- | --- | --- | --- | --- | --- |
| Nc1ccc2c(S(=O)(=O)O)cc(S(=O)(=O)O)cc2c1 [2-amino-5,7-naphthalene disulfonic acid] | 460 nm | 250 nm | 776% | 97 | – | 2.0 grams/kilogram |
| Nc1ccc2cc(S(=O)(=O)O)cc(S(=O)(=O)O)c2c1 [2-amino-6,8-naphthalene disulfonic acid] | 445 nm | 250 nm | 69% | 7 | – | > 5.0 grams/kilogram |
| 1-amino-3,6-naphthalene trisulfonic acid | 500 nm | 360 nm | 4% | 0 | – | – |
| Nc1ccccc1 [aniline] | 340 nm | 230 nm | 4% | 1 | – | 0.25 grams/kilogram |
| Nc1ccc2cc(S(=O)(=O)O)ccc2c1 [2-amino-6-naphthalene sulfonic acid] | 420 nm | 245 nm | 760% | 78 | – | > 5.0 grams/kilogram |
| Nc1ccccc1C(=O)O [2-amino-benzoic acid] | 400 nm | 240 nm | 110% | 13 | – | – |
